In ChEMBL document CHEMBL1155367, “Design and synthesis of new stabilized combi-triazenes for targeting solid tumors expressing the epidermal growth factor receptor (EGFR) or its closest homologue HER2” (Bioorg Med Chem Lett, 2009):
The source made the active and inactive calls. The rule behind the calls is not given here.

Columns and labels:
[1] = target: Epidermal growth factor receptor (Homo sapiens, UniProt P00533); test: Inhibition of EGFR-mediated poly(L-glutamic acid L-tyrosine) phosphorylation
NIH3T3 = test: Growth inhibition of mouse NIH/3T3 cells expressing erB2 gene; type: functional, cell-based
MDA-MB-468 = test: Induction of DNA damage in human MDA-MB-468 cells assessed as tail movements by comet assay; type: functional, cell-based
[2] = Stability assessed as degradation to FD105 at 37 degC by fluorescence; type: physicochemical

Sequence of Epidermal growth factor receptor (P00533 whole entry): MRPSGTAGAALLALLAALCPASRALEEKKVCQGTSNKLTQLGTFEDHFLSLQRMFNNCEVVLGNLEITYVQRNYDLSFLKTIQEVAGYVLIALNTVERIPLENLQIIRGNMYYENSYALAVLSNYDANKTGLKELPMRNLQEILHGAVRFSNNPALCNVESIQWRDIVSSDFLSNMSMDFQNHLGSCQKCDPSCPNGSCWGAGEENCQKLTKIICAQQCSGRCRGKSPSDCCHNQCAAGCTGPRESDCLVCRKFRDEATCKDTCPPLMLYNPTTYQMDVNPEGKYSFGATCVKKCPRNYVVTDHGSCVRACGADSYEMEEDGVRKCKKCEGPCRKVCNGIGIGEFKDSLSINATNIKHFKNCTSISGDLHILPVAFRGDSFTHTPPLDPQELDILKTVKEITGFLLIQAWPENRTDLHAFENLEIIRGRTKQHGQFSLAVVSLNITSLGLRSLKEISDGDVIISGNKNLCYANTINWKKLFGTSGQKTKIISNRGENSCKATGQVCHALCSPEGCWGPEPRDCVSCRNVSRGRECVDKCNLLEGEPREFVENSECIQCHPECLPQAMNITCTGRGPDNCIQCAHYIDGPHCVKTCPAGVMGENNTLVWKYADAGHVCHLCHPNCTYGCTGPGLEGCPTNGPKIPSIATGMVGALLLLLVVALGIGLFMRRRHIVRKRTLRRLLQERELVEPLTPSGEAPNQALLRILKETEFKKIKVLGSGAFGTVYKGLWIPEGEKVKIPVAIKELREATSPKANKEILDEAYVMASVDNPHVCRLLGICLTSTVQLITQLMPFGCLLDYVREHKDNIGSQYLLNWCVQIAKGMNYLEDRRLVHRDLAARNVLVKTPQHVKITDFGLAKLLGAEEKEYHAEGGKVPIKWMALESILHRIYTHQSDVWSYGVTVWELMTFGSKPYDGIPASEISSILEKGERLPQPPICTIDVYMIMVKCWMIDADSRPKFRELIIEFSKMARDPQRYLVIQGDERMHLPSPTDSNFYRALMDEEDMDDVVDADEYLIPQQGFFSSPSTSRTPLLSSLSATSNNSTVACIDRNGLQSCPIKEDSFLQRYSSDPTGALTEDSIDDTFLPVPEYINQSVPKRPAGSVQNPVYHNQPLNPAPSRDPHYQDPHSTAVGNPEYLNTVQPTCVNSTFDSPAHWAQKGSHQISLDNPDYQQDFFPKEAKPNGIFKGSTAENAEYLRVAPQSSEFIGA

## C=COC(=O)N(CCN(C)C)/N=N/c1ccc2ncnc(Nc3cccc(Cl)c3)c2c1
[1]
  IC50: 180 nM
NIH3T3
  IC50: 2280 nM
MDA-MB-468
  Activity: Dose-dependent effect

## CN(/N=N/c1ccc2ncnc(Nc3cccc(Cl)c3)c2c1)C(=O)OCCl
[1]
  IC50: 390 nM
NIH3T3
  IC50: 4940 nM
MDA-MB-468
  Activity: Dose-dependent effect

## CC(=O)OCN(C)/N=N/c1ccc2ncnc(Nc3cccc(Cl)c3)c2c1
[1]
  IC50: 240 nM
[2]
  Stability: Unstable

## CC(=O)OCOC(=O)N(C)/N=N/c1ccc2ncnc(Nc3cccc(Cl)c3)c2c1
[1]
  IC50: 630 nM
NIH3T3
  IC50: 1500 nM
MDA-MB-468
  Activity: Dose-dependent effect
[2]
  Stability: Stable

## CN(/N=N/c1ccc2ncnc(Nc3cccc(Cl)c3)c2c1)C(=O)Oc1ccc([N+](=O)[O-])cc1
[1]
  IC50: 770 nM
NIH3T3
  IC50: 3790 nM
MDA-MB-468
  Activity: Dose-dependent effect
[2]
  Stability: Stable

## C=COC(=O)N(C)/N=N/c1ccc2ncnc(Nc3cccc(Cl)c3)c2c1
[1]
  IC50: 720 nM
NIH3T3
  IC50: 2370 nM
MDA-MB-468
  Activity: inactive
[2]
  Stability: Stable
